Results published in publication PMC10383195, “Interactions of the Kv1.1 Channel with Peptide Pore Blockers: A Fluorescent Analysis on Mammalian Cells” (Membranes, 2023).

Target: T1, mKate2-tagged human Kv1.1 (S369T) channel (K-Kv1.1) (Homo sapiens, UniProt Q09470, S369T)
T1 construct: these fragments were combined and amplified using terminal primers to obtain the whole mutated gene; expressed in transfected cells; host or cells: mouse neuroblastoma Neuro2a cells, transient transfection with pmKate2-KCNA1m1
Test: Competitive binding of peptide pore blocker and A-HgTx to K-Kv1.1 on the plasma membrane of Neuro2a cells (confocal microscopy)
Conditions: complete medium (closed channels), Neuro2a cells, A-HgTx 2 nM, 60 min; Cheng-Prusoff from DC50; mean ± SEM, two independent experiments; SEM; read-out: Kap (apparent dissociation constant of complex with K-Kv1.1)
Experimental: To analyze the binding of A-HgTx, A-HgTx (0.25–4 nM) was added to cells in a complete medium for 60 min. To analyze competitive binding, A-HgTx (2 nM), together with the selected peptide (0.05–160 nM), was added to cells in a complete medium for 60 min.
To compare ligand binding with closed and open channels, ligands were added to cells (60 min, 37 °C) in a buffer (20 mM HEPES pH 7.4, 0.9 mM CaCl2, 0.5 mM MgCl2, 0.1% BSA) supplemented with 4 mM KCl and 150 mM NaCl (Na^+ buffer) or with 150 mM KCl (K^+ buffer).
The fluorescence of the K-Kv1.1 and K-Kv1.1wt channels was excited at 561 nm and detected in the 650–700 nm region. A-HgTx fluorescence was excited at 488 nm and detected in the 495–535 nm region. Sequential scanning was used to measure the cellular distributions of A-HgTx and mKate2 fluorescence in order to avoid interference of mKate2 fluorescence with cellular autofluorescence excited at 488 nm.
Quantitative analysis of the interaction of A-HgTx with K-Kv1.1 was carried out in accordance with the procedure developed previously for A-HgTx and the fluorescently labeled Kv1.3 channel. Briefly, the regions of interest with K-Kv1.1 on the plasma membrane were selected in the confocal images and used to create binary (0;1) masks that described the membranous distribution of K-Kv1.1. The confocal images of K-Kv1.1 and A-HgTx were multiplied by the corresponding mask, and the average fluorescence intensities of A-HgTx (Ili) and K-Kv1.1 (Ici) corrected for the background signal were calculated for each i-cell. Ratio Ri = Ili/Ici was calculated and averaged over 15–20 cells to obtain the Rav value and the standard deviation.
To analyze the competitive binding of the studied peptide pore blocker and A-HgTx to K-Kv1.1 on the cellular membrane, Rav data were plotted depending on the blocker concentration (C) at the constant A-HgTx concentration (L) and fitted with the following equation:Rav(C) = Rav0/(1 + C/DC50)(3) where DC50 is the blocker concentration displacing 50% of A-HgTx from the complex with K-Kv1.1, and Rav0 is Rav at C = 0.
The apparent dissociation constant (Kap) of the complex between the studied blocker and the K-Kv1.1 channel was calculated using the Cheng–Prusoff equation:Kap = DC50/(1 + L/Kd).(4)
Two independent experiments were performed, and the Kav data were averaged and presented as mean ± SEM. Fifteen to twenty-five treated cell images were the average value for each point on the curves of A-HgTx binding to the K-Kv1.1 channel.

T1 sequence (Q09470 whole entry S369T, the tested form may be a part): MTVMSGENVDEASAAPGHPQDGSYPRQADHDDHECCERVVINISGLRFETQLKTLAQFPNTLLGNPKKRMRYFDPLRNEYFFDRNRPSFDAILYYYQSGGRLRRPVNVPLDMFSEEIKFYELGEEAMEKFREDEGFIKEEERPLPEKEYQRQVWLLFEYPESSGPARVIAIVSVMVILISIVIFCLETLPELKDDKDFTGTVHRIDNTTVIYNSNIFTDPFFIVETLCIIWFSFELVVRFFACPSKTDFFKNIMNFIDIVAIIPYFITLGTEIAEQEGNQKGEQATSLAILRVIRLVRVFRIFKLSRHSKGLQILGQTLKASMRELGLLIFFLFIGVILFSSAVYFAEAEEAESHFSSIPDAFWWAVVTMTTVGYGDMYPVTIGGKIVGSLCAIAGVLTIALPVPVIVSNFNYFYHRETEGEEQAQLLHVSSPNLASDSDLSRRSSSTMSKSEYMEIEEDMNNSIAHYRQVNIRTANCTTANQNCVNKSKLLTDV

SMILES	Kd [nM]
CC[C@H](C)[C@H](NC(=O)[C@H](CCC(=O)O)NC(=O)[C@@H](NC(=O)CN)C(C)C)C(=O)N[C@@H](CC(N)=O)C(=O)N[C@H](C(=O)N[C@@H](CCCCN)C(=O)N[C@H]1CSSC[C@@H]2NC(=O)[C@H](CCCCN)NC(=O)CNC(=O)[C@H](Cc3ccccc3)NC(=O)[C@H](CCCNC(=N)N)NC(=O)[C@H](CCSC)NC(=O)CNC(=O)[C@H](C)NC(=O)[C@H](CC(=O)O)NC(=O)[C@H](CCCCN)NC(=O)[C@@H]3CSSC[C@@H](C(=O)N[C@H](C(=O)N4CCC[C@H]4C(=O)N[C@@H](CCCCN)C(=O)O)[C@@H](C)O)NC(=O)[C@H](Cc4c[nH]cn4)NC(=O)[C@H](CSSC[C@H](NC(=O)[C@H](CCC(N)=O)NC(=O)[C@@H]4CCCN4C(=O)[C@H](CO)NC(=O)CNC(=O)[C@H](CO)NC1=O)C(=O)N[C@@H](CC(C)C)C(=O)N[C@@H](CCCCN)C(=O)N1CCC[C@H]1C(=O)N3)NC(=O)[C@H](CCCCN)NC(=O)[C@H](CCCNC(=N)N)NC(=O)[C@H](CC(N)=O)NC(=O)[C@H](CCSC)NC2=O)C(C)C [KTx1, kaliotoxin 1]	0.12 ± 0.08
CC[C@H](C)[C@@H]1NC(=O)[C@@H]2CSSC[C@@H]3NC(=O)[C@H](CCCCN)NC(=O)[C@H](CCCNC(=N)N)NC(=O)[C@H](CC(N)=O)NC(=O)[C@H](CCSC)NC(=O)[C@H](CSSC[C@H](NC(=O)[C@H](CO)NC(=O)[C@@H](NC(=O)[C@H](CC(N)=O)NC(=O)[C@@H](NC(=O)[C@@H]4CCCN4C(=O)[C@@H](NC(=O)CN)C(C)C)[C@@H](C)CC)C(C)C)C(=O)N[C@@H]([C@@H](C)O)C(=O)NCC(=O)N[C@@H](CO)C(=O)N4CCC[C@H]4C(=O)N[C@@H](CCC(N)=O)C(=O)N2)NC(=O)[C@H](CCCCN)NC(=O)CNC(=O)[C@H](Cc2ccccc2)NC(=O)[C@H](CCCNC(=N)N)NC(=O)[C@H](CCSC)NC(=O)CNC(=O)[C@H](C)NC(=O)[C@H](CC(=O)O)NC(=O)[C@H](CCCCN)NC(=O)[C@H](CSSC[C@@H](C(=O)N[C@H](C(=O)N2CCC[C@H]2C(=O)N[C@@H](CCCCN)C(=O)O)[C@@H](C)O)NC(=O)[C@H](Cc2c[nH]cn2)NC3=O)NC(=O)[C@@H]2CCCN2C(=O)[C@H](CCCCN)NC1=O [AgTx2, agitoxin 2]	1.5 ± 0.7
